Columns and labels:
[1] = target: Glycogen synthase kinase-3 alpha (Homo sapiens, UniProt P49840); test: TR-FRET Assay
Method in brief: (§1)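 Kinase activity, measured after a 30-minute compound preincubation, was stopped with EDTA and quantified by TR-FRET using a Tb-labelled pSer641 antibody paired with streptavidin-d2.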

[2] = target: Glycogen synthase kinase-3 beta (Homo sapiens, UniProt P49841); test: TR-FRET Assay
Method in brief: as §1

Chain of Glycogen synthase kinase-3 alpha (P49840 whole entry): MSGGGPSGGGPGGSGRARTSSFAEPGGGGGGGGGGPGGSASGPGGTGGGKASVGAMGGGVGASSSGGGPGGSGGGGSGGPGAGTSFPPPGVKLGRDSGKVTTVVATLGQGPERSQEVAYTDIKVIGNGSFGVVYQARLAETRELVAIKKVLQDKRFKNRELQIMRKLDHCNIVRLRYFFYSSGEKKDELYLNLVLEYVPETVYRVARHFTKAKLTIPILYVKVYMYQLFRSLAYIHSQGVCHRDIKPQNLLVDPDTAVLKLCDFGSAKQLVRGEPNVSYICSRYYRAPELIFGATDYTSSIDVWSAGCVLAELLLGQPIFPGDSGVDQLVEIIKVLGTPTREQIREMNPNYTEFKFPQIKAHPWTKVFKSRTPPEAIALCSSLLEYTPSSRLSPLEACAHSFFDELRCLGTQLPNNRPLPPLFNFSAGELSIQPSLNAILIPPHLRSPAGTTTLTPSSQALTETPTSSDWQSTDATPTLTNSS
Chain of Glycogen synthase kinase-3 beta (P49841 whole entry): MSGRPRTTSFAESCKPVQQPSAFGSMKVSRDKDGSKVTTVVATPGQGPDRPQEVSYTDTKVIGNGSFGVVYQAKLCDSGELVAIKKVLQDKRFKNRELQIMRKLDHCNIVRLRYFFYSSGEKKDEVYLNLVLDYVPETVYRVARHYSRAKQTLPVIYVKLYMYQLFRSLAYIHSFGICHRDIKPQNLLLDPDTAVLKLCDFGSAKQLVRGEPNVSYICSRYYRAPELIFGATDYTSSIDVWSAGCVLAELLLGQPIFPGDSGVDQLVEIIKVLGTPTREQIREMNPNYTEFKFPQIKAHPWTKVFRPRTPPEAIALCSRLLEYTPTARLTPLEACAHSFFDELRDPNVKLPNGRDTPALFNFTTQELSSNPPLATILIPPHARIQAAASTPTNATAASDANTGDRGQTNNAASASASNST

| Structure (SMILES) | IC50 [1] [nM] | IC50 [2] [nM] |
| --- | --- | --- |
| O=C1CCCC2=C1C1(CCOCC1)C1=C(N=NC1)N2 [US20250313563, Compound 884111] | 1000 to 5000 | > 5000 |
| CN1C[C@@]2(C3=C(CC(C)(C)CC3=O)NC3N=NC(C4CC(F)(F)C4)=C32)c2ccccc21 (some centres undefined) [US20250313563, Compound 119048] | 1000 to 5000 | 100 to 1000 |
| CC[C@@]1(c2cccc(-c3ccnc(C)c3)c2)C2=CN=NC2NC2=C1C(=O)NC(C)(C)C2 (some centres undefined) [US20250313563, Compound 927326] | 100 to 1000 | > 5000 |
| CC(C)(C)CC1=C2C(N=N1)NC1=C(C(=O)CC(C)(C)C1)C21CCc2cccc(F)c21 (centres undefined) [US20250313563, Compound 789583] | 100 to 1000 | 100 to 1000 |
| CC[C@@]1(c2cccc(-c3cc(C(C)(C)C)nn3C)c2)C2=CN=NC2NC2=C1C(=O)NC(C)(C)C2 (some centres undefined) [US20250313563, Compound 951843] | 100 to 1000 | > 5000 |
| CC[C@@]1(c2cccc(N3CCC3)c2)C2=CN=NC2NC2=C1C(=O)CC(C)(C)C2 (some centres undefined) [US20250313563, Compound 889632] | > 5000 | > 5000 |
| CC[C@@]1(c2cccc(-c3cnnc(C)c3)c2)C2=CN=NC2NC2=C1C(=O)CC(C)(C)C2 (some centres undefined) [US20250313563, Compound 943994] | 100 to 1000 | 1000 to 5000 |
| CC[C@@]1(c2cccc(N3CCC3(C)C)c2)C2=CN=NC2NC2=C1C(=O)CC(C)(C)C2 (some centres undefined) [US20250313563, Compound 913141] | 100 to 1000 | 1000 to 5000 |
| CC[C@@]1(c2cccc(S(=O)(=O)C3CCCCC3)c2)C2=CN=NC2NC2=C1C(=O)CC(C)(C)C2 (some centres undefined) [US20250313563, Compound 943541] | 100 to 1000 | 1000 to 5000 |
| CC[C@@]1(c2cccc(C(F)(F)F)c2)C2=CN=NC2NC2=C1C(=O)N(c1ccn(C)n1)CC2 (some centres undefined) [US20250313563, Compound 949836] | 1000 to 5000 | > 5000 |
| CC[C@@]1(c2cccc(Oc3ncccn3)c2)C2=C(CC(C)(C)NC2=O)NC2N=NC(F)=C21 (some centres undefined) [US20250313563, Compound 951944] | 1000 to 5000 | > 5000 |

Now from value to compound:

| IC50 [1] [nM] | IC50 [2] [nM] | Structure (SMILES) |
| --- | --- | --- |
| 100 to 1000 | 1000 to 5000 | CCN(c1cccc([C@]2(CC)C3=CN=NC3NC3=C2C(=O)CC(C)(C)C3)c1)c1ncccn1 (some centres undefined) [US20250313563, Compound 947334] |
| < 100 | 100 to 1000 | CC1(C)CC(=O)C2=C(C1)NC1=C(CN=N1)C21CN(CC(F)(F)F)C1 [US20250313563, Compound 912074] |
| < 100 | < 100 | CCC1(c2cccc(-c3cc(C)nnc3C)c2)C2=C(CC(C)(C)NC2=O)NC2N=NC(C)=C21 (centres undefined) [US20250313563, Compound 948765] |
| < 100 | < 100 | CCC1(c2cccc(-c3ccncc3F)c2)C2=C(CC(C)(C)NC2=O)NC2N=NC(C)=C21 (centres undefined) [US20250313563, Compound 945722] |
| < 100 | 100 to 1000 | CCC1(c2cccc(C(F)(F)F)c2)C2=C(N=NC2)NC2=C1C(=O)NC2(C)C (centres undefined) [US20250313563, Compound 912104] |
| < 100 | < 100 | CCC1(c2cccc(N3CCCCC3)c2)C2=C(CC(C)(C)CC2=O)NC2N=NC(C)=C21 (centres undefined) [US20250313563, Compound 877311] |
| < 100 | 100 to 1000 | COc1cccc(S(=O)(=O)N2CCCC3(CC2)C2=CN=NC2NC2=C3C(=O)CC(C)(C)C2)c1 (centres undefined) [US20250313563, Compound 917140] |
| < 100 | < 100 | CC1(C)CC(=O)C2=C(NC3N=NC=C3C23CCCCC3)[C@H]1F (some centres undefined) [US20250313563, Compound 951711] |
| < 100 | 100 to 1000 | CCC1(c2cccc(-c3ccnc4c3CCCC4)c2)C2=C(N=NC2)NC2=C1C(=O)C(C)(C)C2 (centres undefined) [US20250313563, Compound 952752] |
| < 100 | < 100 | CC1(C)CC(=O)C2=C(C1)NC1N=NC=C1C21CCCN(S(=O)(=O)C2CC2)CC1 (centres undefined) [US20250313563, Compound 917137] |
| < 100 | < 100 | CC1(C)CC(=O)C2=C(C1)NC1=C(CN=N1)C21COC2(CN(C(=O)CC3CCCC3)C2)C1 (centres undefined) [US20250313563, Compound 947293] |

— BindingDB's records for patent US20250313563 (The Broad Institute, 2025)
